Patent publication US7329682B2, “Method for inhibiting 5-lipoxygenase using a benzoxazole derivative” (EWHA University-Industry Collaboration Foundation, priority 2003, dated 2008)
Like-named read-outs stand apart in the source and are kept apart here.

What was measured:
5-lipoxygenase = target: T1, 5-lipoxygenase (Mus musculus, UniProt P48999); test: Measurement of 5-lipoxygenase inhibition activity (free LTC4 from SCF-stimulated bone marrow-derived mast cells, enzyme immunoassay); assay type: cell-based, mouse (male BALB/cJ mice)
T1 construct: over 98% of cells were confirmed as mast cells originated from bone marrow; endogenous in cells; host or cells: bone marrow-derived mast cells from male BALB/cJ mice
T1 sequence (P48999 1-674): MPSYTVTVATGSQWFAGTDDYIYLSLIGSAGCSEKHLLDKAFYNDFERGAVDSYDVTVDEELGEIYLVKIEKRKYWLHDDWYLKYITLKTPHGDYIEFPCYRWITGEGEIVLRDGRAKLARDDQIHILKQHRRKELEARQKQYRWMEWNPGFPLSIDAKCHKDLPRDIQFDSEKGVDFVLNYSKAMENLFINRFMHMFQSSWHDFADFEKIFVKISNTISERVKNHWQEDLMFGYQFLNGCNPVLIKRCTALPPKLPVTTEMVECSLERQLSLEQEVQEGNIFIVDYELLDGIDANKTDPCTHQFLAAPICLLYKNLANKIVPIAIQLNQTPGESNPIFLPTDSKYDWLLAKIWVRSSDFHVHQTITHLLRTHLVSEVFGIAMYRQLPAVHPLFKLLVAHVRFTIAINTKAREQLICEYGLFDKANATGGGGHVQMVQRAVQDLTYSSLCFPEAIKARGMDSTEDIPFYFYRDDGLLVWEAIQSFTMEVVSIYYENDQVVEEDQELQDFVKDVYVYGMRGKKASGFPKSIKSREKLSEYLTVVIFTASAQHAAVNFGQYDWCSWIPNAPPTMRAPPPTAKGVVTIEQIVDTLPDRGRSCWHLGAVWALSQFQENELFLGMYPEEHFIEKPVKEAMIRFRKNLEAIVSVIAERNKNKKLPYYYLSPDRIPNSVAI
Procedure: Measurement of 5-lipoxygenase Inhibition Activity
The obtained cells were suspended in the enriched medium to a concentration of 1×10^6 cells/ml. […] 100 ng/ml of stem cell factor (SCF) was added to the culture medium, and then, the culture was centrifuged at 120 xg for 20 min at 4° C. Then, the supernatant was separated and the amount of free LTC4 was determined using an LTC4 enzyme immunoassay kit (Cayman Chemical, Ann Arbor, Mich., U.S.A.). The stem cell factor (SCF) was recombinantly expressed by the baculovirus/insect cell expression system. After 20-min stimulation, the supernatants were isolated for further analysis by enzyme immunoassay.

[1] = mast cells originated from bone marrow of BALB/cJ mice, 1×10^6 cells/ml, 30 min preincubation at 37° C., 100 ng/ml SCF stimulation 20 min, free LTC4 by enzyme immunoassay, vs non-treated control, read-out: IC50

| SMILES | IC50 (5-lipoxygenase; [1]) | melting point | IC50 (5-lipoxygenase) |
| --- | --- | --- | --- |
| CCc1ccc(Nc2nc3ccccc3o2)cc1 [Example 6] | 1.21 µM | 123 to 125.3 °C |  |
| Clc1ccccc1/C=C/c1nc2ccccc2s1 [Example 25] | 2.92 µM |  |  |
| FC(F)Sc1ccccc1-c1nc2ccccc2s1 [Example 15] | 1.54 µM | 188 to 190 °C |  |
| O=[N+]([O-])c1ccc(-c2nc3ccccc3s2)cc1 [Example 14] |  |  | 11 µM |
| CCc1ccc(Nc2nc3cc(Cl)ccc3o2)cc1 [Example 9] |  | 196 to 198 °C | 0.95 µM |
| c1ccc(N=Nc2ccc(Nc3nc4ccccc4o3)cc2)cc1 [Example 4, 4-phenylazophenyl aminobenzoxazole] | 6.28 µM |  |  |
| c1ccc(-c2nc3ccccc3s2)cc1 [Example 12, 2-phenyl benzothiazole] | 7.26 µM |  |  |
| O=[N+]([O-])c1ccc2oc(Nc3ccc(N=Nc4ccccc4)cc3)nc2c1 [Example 10] | 28.4 µM |  |  |
| ClCc1cccc(-c2nc3ccccc3s2)c1 [Example 22] | 2.49 µM |  |  |
| Cc1ccc(-c2nc3ccccc3s2)cc1N [Example 19] | 4.16 µM |  |  |
| COc1ccc(-c2nc3ccccc3s2)cc1OC [Example 21] | 2.76 µM | 132 to 133 °C |  |
| N#Cc1ccc(-c2nc3ccccc3s2)cc1 [Example 16] | 4.32 µM | 120 to 123 °C |  |

More lines, main results first:

| IC50 (5-lipoxygenase; [1]) | melting point | SMILES | IC50 (5-lipoxygenase) |
| --- | --- | --- | --- |
| 12.6 µM | 191 to 192.3 °C | Clc1ccc2oc(Nc3ccc(N=Nc4ccccc4)cc3)nc2c1 [Example 7] |  |
| 9.3 µM |  | CCCCOc1ccc(-c2nc3ccccc3s2)cc1 [Example 17] |  |
| 8.91 µM |  | c1ccc(Nc2nc3ccccc3o2)cc1 [Example 5] |  |
| 1.58 µM | 270 to 272 °C | Clc1ccc(Nc2nc3cccnc3s2)cc1Cl [Example 3] |  |
| 11.2 µM | 128 to 130.5 °C | Fc1ccc(-c2nc3ccccc3s2)cc1 [Example 13] |  |
| 6.11 µM |  | CCSc1ncccc1-c1nc2ccccc2s1 [Example 23] |  |
| 5.27 µM |  | Cc1ccc(-c2nc3ccccc3s2)cc1 [Example 20] |  |
| 2.5 µM |  | O=[N+]([O-])c1ccc(Cl)c(-c2nc3ccccc3s2)c1 [Example 18] |  |
| 10.3 µM |  | CCc1ccc(Nc2nc3cccnc3s2)cc1 [Example 2] |  |
| 23.9 µM | 161 to 163.5 °C | CCc1ccc(Nc2nc3cc([N+](=O)[O-])ccc3o2)cc1 [Example 11] |  |
